From ChEMBL document CHEMBL1201862, “PubChem BioAssay data set” (2004) come the findings set out here.

Each structure is given as a SMILES string.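 Protocol summary: plate cells (96-well), add compound at 5 concentrations, incubate 48 h, interpolate endpoints linearly. The concentration for 50% growth inhibition is given as GI50.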 Activity calls are given as the source filed them. Cut-off read from the data, not from the text of the source: active = GI50 up to about 1.1 µM and inactive = higher. A value given as a limit tells only on which side of the number the result lay.

Common to all, as to experiment: NCI-60 cell line screen, 48 h
Assay [1] relates to CCRF-CEM.
For assay [2], the system named is COLO 205.
The subject of assay [3] is NCI-H460.
Assay [4] has as its system SNB-19.
Assay [5] has as its system SF-539.
For assay [6], the system named is Hs-578T.
Assay [7] has as its system SK-MEL-2.
The test system of assay [8] is HOP-62.
For assay [9], the system named is HL-60.
The subject of assay [10] is SNB-75.
Assay [11] concerns NCI-H522.
Assay [12] has as its system SR.
Assay [13] relates to HOP-92.
In assay [14] the test system is UACC-62.
Assay [15] deals with U-251.
For assay [16], the system named is OVCAR-8.
Assay [17] has as its system OVCAR-3.
Assay [18] has as its system KM12.
Assay [19] relates to PC-3.
Assay [20] concerns M14.

In the case of `O=C1Oc2ccccc2C(=O)/C1=C/N1C(=O)N/C(=C\c2ccccc2O)C1=O`, the GI50 was > 100 µM (inactive) in [1]; 62.5 µM (inactive) in assay [2]; 35.2 µM (inactive) in [3]; > 100 µM (inactive) in assay [4]; 59.8 µM (inactive) in assay [5]; > 53.1 µM (inactive) in assay [6]. In addition, the GI50 is > 56.9 µM (inactive) in [7]; 71.3 µM (inactive) in assay [8]; 60.3 µM (inactive) in assay [9]; > 78.5 µM (inactive) in assay [10]; 55.5 µM (inactive) in assay [11]; 32.3 µM (inactive) in assay [12]. Further, the GI50 was 11 µM (inactive) in assay [13]; 36.9 µM (inactive) in assay [14]; 57.7 µM (inactive) in assay [15]; 58.1 µM (inactive) in assay [16]; 32.7 µM (inactive) in [17]; 56.8 µM (inactive) in assay [18]. Besides, the GI50 in assay [19] is 43.6 µM (inactive); in assay [20], 66.4 µM (inactive).

On to `CN(Cc1cc(Cl)cc(Cl)c1)CC(C(=O)c1ccccc1)c1ccccc1` (stereo not given), for which the GI50 in assay [1] was < 0.0439 µM (active); in [2], 3.92 µM (inactive); in assay [3] it was 27.5 µM (inactive); in assay [4] it was 14.4 µM (inactive); in [5], 5.77 µM (inactive); in [6] it was 3.15 µM (inactive). For the same compound, the GI50 is 10.2 µM (inactive) in assay [7]; 24.8 µM (inactive) in [8]; 1.65 µM (inactive) in [9]; 7.48 µM (inactive) in assay [10]; 1.54 µM (inactive) in assay [11]; 0.473 µM (active) in assay [12]. The GI50 was 7.33 µM (inactive) in assay [13]; 2.9 µM (inactive) in [14]; 1.38 µM (inactive) in assay [15]; 4.2 µM (inactive) in assay [16]; 0.605 µM (active) in [17]; 3.78 µM (inactive) in [18]. For the same compound, the GI50 in [19] was 4.91 µM (inactive); in assay [20], 2.98 µM (inactive).

`O=C(/C=C\c1ccccc1)Oc1ccc(/C=C2\CCC/C(=C\c3ccc(OC(=O)/C=C\c4ccccc4)cc3)C2=O)cc1`: the GI50 in assay [1], in assay [2], in assay [3], in [4], in assay [5] and in assay [6] was > 100 µM (inactive) in each case. The GI50 in [7] was > 100 µM (inactive); in [8] it was > 100 µM (inactive); in [9] it was > 100 µM (inactive); in assay [10] it was 56.5 µM (inactive); in [11], > 100 µM (inactive); in assay [12], > 100 µM (inactive). In addition, the GI50 in assay [13], in assay [14], in [15], in assay [16], in assay [17] and in assay [18] was > 100 µM (inactive) each time. Moreover, the GI50 in [19] and in assay [20] was > 100 µM (inactive) throughout.

For the compound `COc1ccc(OC)c(N(CN2C(=O)CCC2C(=O)O)C(C)=O)c1` (stereo not given), the GI50 in assay [1] was > 100 µM (inactive); in assay [2], > 100 µM (inactive); in [3], > 10 µM (inactive); in assay [4] it was > 100 µM (inactive); in assay [5], > 100 µM (inactive); in assay [6] it was > 100 µM (inactive). Also, the GI50 in [7], in assay [8], in [9], in assay [10], in assay [11] and in assay [12] was > 100 µM (inactive) in each case. Also, the GI50 in [13], in assay [14], in assay [15], in [16], in [17] and in assay [18] was > 100 µM (inactive) in each case. Besides, the GI50 in assay [19] and in assay [20] was > 100 µM (inactive) in each case.

On to `Cc1ncc(-c2nnnn2-c2ccccc2)c(C(=O)O)n1`, for which the GI50 in assay [1], in assay [2], in [3], in assay [4], in assay [5] and in [6] was > 100 µM (inactive) each time. Besides, the GI50 was 33.3 µM (inactive) in [7]; > 100 µM (inactive) in [8]; > 100 µM (inactive) in assay [9]; > 100 µM (inactive) in assay [10]; > 100 µM (inactive) in assay [11]; > 100 µM (inactive) in assay [12]. The GI50 in [13], in assay [14], in assay [15], in [16], in [17] and in assay [18] was > 100 µM (inactive) throughout. Moreover, the GI50 in [19] and in [20] was > 100 µM (inactive) each time.

As to `CCN(CC)P1(=S)Oc2ccc3ccccc3c2-c2c(ccc3ccccc23)O1`, the GI50 in [1] is > 100 µM (inactive); in assay [2] it was > 100 µM (inactive); in assay [3], > 100 µM (inactive); in [4], > 100 µM (inactive); in [5], > 100 µM (inactive); in assay [6], 40.3 µM (inactive). The GI50 in assay [7] was > 100 µM (inactive); in [8], > 100 µM (inactive); in [9] it was > 100 µM (inactive); in assay [10], 32.2 µM (inactive); in assay [11] it was 60.1 µM (inactive); in assay [12] it was 27.4 µM (inactive). Moreover, the GI50 in assay [13] was > 100 µM (inactive); in assay [14], > 100 µM (inactive); in assay [15] it was > 100 µM (inactive); in [16], > 100 µM (inactive); in [17], > 100 µM (inactive); in [18], 5 µM (inactive). Moreover, the GI50 in assay [19] and in assay [20] was > 100 µM (inactive) each time.

As to `Cc1cc(NC(=O)NC(=O)c2ccccc2N)ccc1Oc1ncc(Br)cn1`, the GI50 is 0.0111 µM (active) in assay [1]; < 0.0104 µM (active) in assay [2]; < 0.0112 µM (active) in [3]; < 0.0137 µM (active) in assay [4]; < 0.011 µM (active) in assay [5]; < 0.01 µM (active) in assay [6]. The GI50 is < 0.01 µM (active) in assay [7]; 0.0118 µM (active) in assay [8]; < 0.01 µM (active) in [9]; 0.0117 µM (active) in [10]; < 0.01 µM (active) in assay [11]; < 0.0631 µM (active) in assay [12]. The GI50 is 0.0159 µM (active) in assay [13]; 0.0347 µM (active) in assay [14]; 0.0141 µM (active) in [15]; 0.0217 µM (active) in assay [16]; < 0.01 µM (active) in [17]; < 0.0105 µM (active) in [18]. The results for the GI50 in assay [19] and in assay [20] were < 0.01 µM (active) and 0.0117 µM (active), respectively.

For `Cc1nc2sc3ccccc3n2c(=O)c1/N=N/c1ccc(Br)cc1`, the GI50 is 77.8 µM (inactive) in assay [1]; > 100 µM (inactive) in assay [2]; > 100 µM (inactive) in assay [3]; > 100 µM (inactive) in [4]; > 100 µM (inactive) in [5]; 67.5 µM (inactive) in assay [6]. The GI50 is 81.5 µM (inactive) in [7]; > 100 µM (inactive) in assay [8]; 81.8 µM (inactive) in assay [9]; > 100 µM (inactive) in assay [10]; 38.5 µM (inactive) in [11]; 82.6 µM (inactive) in assay [12]. Besides, the GI50 in [13] was 76.4 µM (inactive); in assay [14] it was > 100 µM (inactive); in [15], > 100 µM (inactive); in [16], > 100 µM (inactive); in [17], > 100 µM (inactive); in assay [18], > 100 µM (inactive). Further, the GI50 in assay [19] was 51.5 µM (inactive); in [20], > 100 µM (inactive).

As to `C/C=N\n1c(C)n[nH]c1=O`, the GI50 in [1], in assay [2], in assay [3], in [4], in [5] and in [6] was > 100 µM (inactive) in each case. For the same compound, the GI50 in assay [7], in [8], in assay [9], in assay [10], in assay [11] and in [12] was > 100 µM (inactive) each time. In addition, the GI50 in assay [13], in assay [14], in assay [15], in assay [16], in assay [17] and in assay [18] was > 100 µM (inactive) throughout. Further, the GI50 in assay [19] and in [20] was > 100 µM (inactive) each time.

`N#CC(C#N)[C@@H]1CCC=C(Sc2ccccc2)[C@H]1Sc1ccccc1`: the GI50 was 1.57 µM (inactive) in assay [1]; 2.2 µM (inactive) in assay [2]; 3.56 µM (inactive) in [3]; 12.8 µM (inactive) in assay [4]; 2 µM (inactive) in [5]; 5.16 µM (inactive) in [6]. Further, the GI50 in [7] is 3.07 µM (inactive); in assay [8] it was 3.2 µM (inactive); in assay [9], 2.01 µM (inactive); in [10], 5.08 µM (inactive); in assay [11] it was 2.19 µM (inactive); in [12], 1.97 µM (inactive). Besides, the GI50 in assay [13] is 3.39 µM (inactive); in assay [14], 3.56 µM (inactive); in [15], 5.81 µM (inactive); in [16], 2.7 µM (inactive); in assay [17] it was 3.44 µM (inactive); in assay [18], 3 µM (inactive). Moreover, the GI50 in assay [19] was 3.86 µM (inactive); in assay [20] it was 1.96 µM (inactive).
